The text below walks through data of patent EP3732162B1, “NITROALKENE NON STEROIDAL ANTI-INFLAMMATORY DRUGS (NA-NSAIDS) AND METHODS OF TREATING INFLAMMATION RELATED CONDITIONS” (Institut Pasteur De Montevideo, priority 2017, dated 2019).

For one test, the system named is IL-1β. Briefly: In vivo model of peritonitis (LPS-induced inflammatory response), IL-1β by ELISA. Conditions: mice, 50 mg/kg IP 1 hour before LPS 10 mg/kg IP for 2 hours; as opposed to BA; FIG. 12. As for the experimental part: Mice were treated with BANA, Benzoic Acid (50 mg/kg, IP) or the vehicle (100 mM Phosphate buffer 10% DMSO) for 1 hour. Then were injected with LPS (10 mg/kg, IP) or PBS for 2 hours. Mice were collected for peritoneal wash and blood samples were extracted. The peritoneal wash and plasma were stored to measure IL-1β by ELISA. The values are show as mean ± SD from three mice per condition and we have used the statistic test one-way ANOVA with Bonferroni.

Test [1] is described as follows: Adduct formation with beta mercaptoethanol (BME), followed spectrophotometrically. The source says:
While not wishing to be bound by theory, during inflammation, reversible reactions with nucleophilic molecules such as NF-κB and the inflammasomes have shown to modify inflammatory response. One method to identify reactions with nucleophilic targets at physiological pH is by screening with beta mercaptoethanol ("BME"). […] Thus, the nitroalkene NSAIDs within the scope of the present invention react with nucleophilic molecules such as NF-κB and the inflammasomes to modify inflammatory response.

Another test relates to NF-κB. Briefly: IL-1β secretion by ELISA in PMA-differentiated macrophages, compound given together with LPS (1st signal). It counts as cell-based. As for the experimental part:
(§1) In order to compare benzoic acid (BA) and nitroalkene benzoic acid (BANA) over NF-κB and inflammasome function in macrophages, TUP-1 cells were differentiated into macrophages with PMA (200 nM, 48 h). Cells were then stimulated with LPS (250ng/mL) and with ATP (5mM, 45 minutes). Together with LPS (1st signal, FIG. 6) or ATP (2nd signal, FIG. 7), cells were treated with Benzoic acid (30 µM) or BANA (30 µM). Supernatants were collected and IL-1β secretion was measured by ELISA. […] Thus, BANA inhibits both the generation of the inflammasome, and inhibits the inflammasome itself.
(§2) Further exemplary studies were performed with Flufenamate (FluFE) and nitroalkene flufenamate (FluFENA). In order to study the effect of Flufenamate (FluFE) and FluFENA over NF-κB and inflammasome function in macrophages, THP-1 cells were differentiated into macrophages with PMA (200 nM, 48 h). Cells were stimulated with LPS (250ng/mL) and then with ATP (5mM, 45 minutes). Together with LPS (1st signal, FIG. 8) or ATP (2nd signal, FIG. 9), cells were treated with FluFE (5 µM) or FluFENA (5 µM). Supernatant were collected and IL-1β secretion was measured by ELISA. Cell viability was assessed by the MTT assay.
(§3) To study the effect of ibuprofen and IBUNA over NF-xB and inflammasome function in macrophages, TUP-1 cells were differentiated into macrophages with PMA (200 nM, 48 h). Cells were stimulated with LPS (250ng/mL) and then with ATP (5mM, 45 minutes). Together with LPS (1st signal, FIG. 10) or ATP (2nd signal, FIG. 11), cells were treated with Ibuprofen (20 µM) or IBUNA (20 µM). Supernatant were collected and IL-1β secretion was measured by ELISA.
For orientation: An ELISA detects its analyte on a solid surface through an enzyme-linked reagent.

Another test has as its system inflammasome. The experiment in a line: IL-1β secretion by ELISA in PMA-differentiated macrophages, compound given together with ATP (2nd signal). It counts as cell-based. As for the experimental part:
as §1, §2, §3

With `O=C(O)c1ccc(/C=C/[N+](=O)[O-])cc1` [BANA, (E)-4-(2-nitrovinyl)benzoic acid], in the test on IL-1β, the “level of pro-inflammatory cytokine IL-1β secretion in blood plasma” value is on record as “marked decrease”. Also, the “level of pro-inflammatory cytokine IL-1β secretion in peritoneal wash” value in the test with IL-1β is given as “marked decrease”. For the same compound, in test [1] (10 µM BANA with 30 µM BME, 100 mM phosphate buffer pH 7.4, FIG. 4), the “nitroalkene NSAID adduction with BME (absorbance)” value (from here on “nitroalkene NSAID adduction”) is “absorbance increase”. The IL-1β secretion result with NF-κB (TUP-1 cells differentiated with PMA, 30 µM together with LPS 250ng/mL (1st signal), then ATP 5mM 45 minutes, vs Benzoic acid 30 µM, FIG. 6) is given as “inhibition of IL-1β secretion”; in the test with inflammasome (TUP-1 cells differentiated with PMA, LPS 250ng/mL, then 30 µM together with ATP 5mM 45 minutes (2nd signal), vs Benzoic acid 30 µM, FIG. 7), “inhibition of IL-1β secretion”.
With `O=C(O)c1cc(/C=C/[N+](=O)[O-])ccc1Nc1cccc(C(F)(F)F)c1` [FluFENA, (E)-5-(2-nitrovinyl)-2-((3-(trifluoromethyl)phenyl)amino)benzoic acid], in test [1] (12.5 µM FluFENA with 125 µM BME, 100 mM phosphate buffer pH 7.4, FIG. 3), the “nitroalkene NSAID adduction” value is “absorbance increase”. The IL-1β secretion result in the test with NF-κB (THP-1 cells differentiated with PMA, 5 µM together with LPS 250ng/mL (1st signal), compared with FluFE 5 µM, FIG. 8) is listed as “unexpected advantage”; in the test with inflammasome (THP-1 cells differentiated with PMA, 5 µM together with ATP 5mM 45 minutes (2nd signal), compared with FluFE 5 µM, FIG. 9) it was “unexpected advantage”.
In the case of `CC(C)Cc1ccc(C(C)C(=O)O)cc1/C=C/[N+](=O)[O-]` (stereo not shown) [IBUNA, (E)-2-(4-isobutyl-3-(2-nitrovinyl)phenyl)propanoic acid], in test [1] (50 µM IBUNA with 250 µM BME, 100 mM phosphate buffer pH 7.4, FIG. 2), the “nitroalkene NSAID adduction” value was “absorbance increase”. For the same compound, the IL-1β secretion entry was “unexpected superiority” in the test with NF-κB (TUP-1 cells differentiated with PMA, 20 µM together with LPS 250ng/mL (1st signal), compared with Ibuprofen 20 µM, FIG. 10) and “unexpected superiority” in the test on inflammasome (TUP-1 cells differentiated with PMA, 20 µM together with ATP 5mM 45 minutes (2nd signal), compared with Ibuprofen 20 µM, FIG. 11).
With `CC(=O)Nc1ccc(O)c(/C=C/[N+](=O)[O-])c1` [PARANA, (E)-N-(4-hydroxy-3-(2-nitrovinyl)phenyl)acetamide], the “nitroalkene NSAID adduction” value in test [1] (30 µM PARANA with 30 µM BME, 100mM phosphate buffer pH 7.4, FIG. 1) is “absorbance increase”.
Turning to `O=[N+]([O-])/C=C/c1ccc(O)cc1` [PheNA, (E)-4-(2-nitrovinyl)phenol], in test [1] (50 µM PheNA with 500 µM BME, 100 mM phosphate buffer pH 7.4, FIG. 5), the “nitroalkene NSAID adduction” value is “absorbance increase”.
